What was measured:
[1] = test system: prostaglandin E2-induced hyperalgesia; experiment: rat paw pressure test, prostaglandin E2-induced hyperalgesia; conditions: for 50% effective dose / 60% effective dose / 90% effective dose: reversal of PGE2-induced hyperalgesia, CurveExpert 1.3
[2] = test system: hyperalgesia induced by the Walker 256 tumor; experiment: hyperalgesia induced by the Walker 256 tumor (cancer pain); assay type: in vivo, rat
Text: (§1) The Walker 256 tumor cells were kindly provided by Prof. Dr. Rui Curi, of the Physiology and Biophysics Department of the Biomedical Science Institute of the University of São Paulo. The tumor-bearing animal was sacrificed and the tumoral tissue was removed, placed on a Petri dish containing 0.9% saline. Then, the tumor was cut in smaller parts, and transferred into a beaker containing saline. The material was triturated with a fine-cut, until the tumor is totally fragmented. Then, this material was filtered in gauze and the liquid collected in a beaker. All procedures were performed on ice. The material of the beaker was transferred to 50 ml plastic tubes and centrifuged at 4° C., for 10 minutes, at 1200 rpm. After centrifugation, the supernatant was rejected and the precipitate resuspended in saline 0.9%. For cell counts, the suspension of cells was diluted (1:100) in saline. An aliquot (200 μl) was removed and placed in a test tube containing 200 μl of 1% Trypan blue. The cell number was determined in optical microscope using Neubauer's chamber. The cellular viability was determined considering viable the light-refracting cells.
(§2) After determining the number of cells, 1 ml of the suspension, containing 1×10^7 cells, was injected by intraperitoneal route, on the right side of the rats to obtain liquid tumor (ascites).
(§3) Five days after injection, the rats with ascites were sacrificed and the ascetic fluid collected from the peritoneal cavity and placed in a test tube containing EDTA. The liquid was diluted 100 times with phosphate-buffered saline (PBS), pH 7.4. The cell count was done after dilution with Trypan blue, as described above. Tumor cell count was ascertained to 1×10^6 cells in 100 μl, by dilution with PBS. This number of cells was determined in preliminary tests for induction of cancer pain in rats. In this final cell number adjustment, the volume of antibiotic (Benzetacil®) added to the suspension (150,000 units of antibiotic/10 ml of suspension), was taken into consideration. The antibiotic was used in order to avoid microbial contamination. The cells were injected by intraplantar route into one of the rat hind paws. Control animals were injected with PBS into the contralateral paw, in the same experimental conditions.
(§4) Hyperalgesia, allodynia and spontaneous pain were determined before (BM-basal measurement) and 5 days after tumor cell injection, before (IM-initial measurement) and 2 hours after (FM-Final measurement) peptide administration.
(§5) The results were analyzed comparing the mean values of the basal and initial measurements, or of the initial and final measurements or, when determined, by comparing the mean values obtained in the different experimental groups (Tables 17, 18, 19).
For this purpose, the animals were treated with CTOP, a specific μ receptor antagonist (20 μg/paw), nor-BNI, a specific κ receptor antagonist (50 μg/paw) or with ICI 174,864, a specific δ receptor antagonist (10 μg/paw). The antagonists were injected by intraplantar route. The peptide was administered in the dose of 6 μg/kg, orally, immediately before the injection of the opioid antagonists. The results were analyzed comparing the mean values of the basal and initial measurements, or of the initial and final measurements or, when determined, by comparing the mean values obtained in the different experimental groups ( Table 20).

[3] = test system: spontaneous pain induced by the Walker 256 tumor; experiment: spontaneous pain induced by the Walker 256 tumor (lifting, licking); assay type: in vivo, rat; conditions: 6 μg/kg p.o.
Text: as §1, §2, §3, §4, §5

[4] = 5th day after tumor implantation, 2 hours after peptide
[5] = 5th day after tumor implantation, before peptide

Xaa-Phe-Ser-Pro-Glu-Asn-Cys-Gln-Gly-Glu-Ser-Gln-Pro-Cys [SEQ ID NO: 2]
pain threshold, FM (g) ± S.E.M ([1]; 5 μg/kg p.o. + ICI174,864 i.pl. with PGE2, 3 h after PGE2): 145 ± 2.89 g
pain threshold, IM (g) ± S.E.M. ([1]; 5 μg/kg p.o. + ICI174,864 i.pl., before PGE2): 77 ± 1.05 g
pain threshold, FM (g) ± S.E.M ([1]; 5 μg/kg p.o. + nor-BNI i.pl. with PGE2, 3 h after PGE2): 58 ± 2.47 g
pain threshold, IM (g) ± S.E.M. ([1]; 5 μg/kg p.o. + nor-BNI i.pl., before PGE2): 77 ± 1.05 g
pain threshold, FM (g) ± S.E.M ([1]; 5.0 μg/kg p.o., 3 h after PGE2 100 ng/paw i.pl. (Table 2)): 130 ± 1.58 g
pain threshold, FM (g) ± S.E.M ([1]; 5 μg/kg p.o., 3 h after PGE2 100 ng/paw i.pl. (Table 8)): 147 ± 2.55 g
pain threshold, IM (g) ± S.E.M. ([1]; 5.0 μg/kg p.o., before PGE2 (Table 2)): 78 ± 2.00 g
pain threshold, IM (g) ± S.E.M. ([1]; 5 μg/kg p.o., before PGE2 (Table 8)): 77 ± 1.22 g
pain threshold, FM (g) ± S.E.M ([1]; 25.0 μg/kg p.o., 3 h after PGE2 100 ng/paw i.pl.): 133 ± 3.39 g
pain threshold, IM (g) ± S.E.M. ([1]; 25.0 μg/kg p.o., before PGE2): 79 ± 1.87 g
50% effective dose ([1]; intraplantar route): 0.000002327 µg/kg
60% effective dose ([1]; intraplantar route): 0.000004904 µg/kg
90% effective dose ([1]; intraplantar route): 0.002876 µg/kg
50% effective dose ([1]; intravenous route): 0.0000458 µg/kg
60% effective dose ([1]; intravenous route): 0.0002144 µg/kg
90% effective dose ([1]; intravenous route): 0.002701 µg/kg
duration of the antinociceptive effect ([1]; one single administration, 1 μg/kg p.o.): up to 120 hours
50% effective dose ([1]; oral route): 0.004146 µg/kg
60% effective dose ([1]; oral route): 0.006348 µg/kg
90% effective dose ([1]; oral route): 0.02106 µg/kg
opioid receptors involved in the antinociceptive effect ([1]; peptide 1 μg/kg p.o., delta, kappa, mu antagonists i.pl.): kappa opioid receptors are involved
opioid receptors involved in the antinociceptive activity ([1]; peptide 5 μg/kg p.o., kappa and delta antagonists i.pl.): kappa opioid receptors are involved
analgesic activity ([1]; synthetic peptides compared with natural ENPAK-k, similar conditions): same analgesic activity as the natural ENPAK-k
pain threshold, FM ([2]; 6 μg/kg p.o. + CTOP 20 μg/paw i.pl., 5th day, 2 hours after peptide): 72 ± 2.81 g
pain threshold, IM ([2]; 6 μg/kg p.o. + CTOP 20 μg/paw i.pl., 5th day, before peptide): 37 ± 2.81 g
pain threshold, BM ([2]; 6 μg/kg p.o. + CTOP 20 μg/paw i.pl., before injection of the tumor): 70 ± 1.29 g
pain threshold, FM ([2]; 6 μg/kg p.o. + ICI 174,864 10 μg/paw i.pl., 5th day, 2 hours after peptide): 52 ± 1.22 g
pain threshold, IM ([2]; 6 μg/kg p.o. + ICI 174,864 10 μg/paw i.pl., 5th day, before peptide): 33 ± 3.39 g
pain threshold, BM ([2]; 6 μg/kg p.o. + ICI 174,864 10 μg/paw i.pl., before injection of the tumor): 67 ± 1.22 g
pain threshold, FM ([2]; 6 μg/kg p.o. + nor-BNI 50 μg/paw i.pl., 5th day, 2 hours after peptide): 32 ± 1.05 g
pain threshold, IM ([2]; 6 μg/kg p.o. + nor-BNI 50 μg/paw i.pl., 5th day, before peptide): 32 ± 2.14 g
pain threshold, BM ([2]; 6 μg/kg p.o. + nor-BNI 50 μg/paw i.pl., before injection of the tumor): 69 ± 1.53 g
pain threshold, FM ([2]; 6 μg/kg p.o., 5th day after tumor implantation, 2 hours after peptide (Table 17)): 76 ± 2.29 g
pain threshold, IM ([2]; 6 μg/kg p.o., 5th day after tumor implantation, before peptide (Table 17)): 27 ± 1.01 g
pain threshold, FM ([2]; 6 μg/kg p.o., 5th day, 2 hours after peptide (Table 20)): 75 ± 2.88 g
pain threshold, IM ([2]; 6 μg/kg p.o., 5th day, before peptide (Table 20)): 36 ± 2.39 g
pain threshold, BM ([2]; 6 μg/kg p.o., before injection of the tumor (Table 17)): 69 ± 1.30 g
pain threshold, BM ([2]; 6 μg/kg p.o., before injection of the tumor (Table 20)): 71 ± 1.25 g
effect of the mu opioid receptor antagonist on the anti-hyperalgesic effect of the peptide ([2]; peptide 6 μg/kg p.o., CTOP 20 μg/paw i.pl.): did not alter
effect of the delta opioid receptor antagonist on the anti-hyperalgesic effect of the peptide ([2]; peptide 6 μg/kg p.o., ICI 174,864 10 μg/paw i.pl.): partially inhibited
effect of the kappa opioid receptor antagonist on the anti-hyperalgesic effect of the peptide ([2]; peptide 6 μg/kg p.o., nor-BNI 50 μg/paw i.pl.): blocked
Licking duration, FM [3, 4]: 1.6 ± 0.81 s
Lifting duration, FM [3, 4]: 25 ± 7.72 s
Licking duration, IM [3, 5]: 15 ± 1.46 s
Lifting duration, IM [3, 5]: 204 ± 30.74 s
Licking duration, BM ([3]; before injection of the tumor): 0 ± 0.00 s
Lifting duration, BM ([3]; before injection of the tumor): 0 ± 0.00 s

Reference: patent US9109041B2, “Analog compounds of analgesic peptides derived from the venom of crotalus durissus terrificus snakes, their uses, compositions, methods of preparation and purification” (priority 2004, dated 2015)
